# Assay results as given in article PMC8625052, “The Antiarrhythmic Activity of Novel Pyrrolidin-2-one Derivative S-75 in Adrenaline-Induced Arrhythmia” (Pharmaceuticals, 2021).
# Entries after “also recorded” stand apart in the source; their conditions may differ. Marks after values point to notes of the source that are not given here.
# What was measured:
# [1] = test system: post-reperfusion arrhythmia of isolated rat heart; assay: Antiarrhythmic activity in the post-reperfusion model in isolated rat heart; conditions: for Extrasystoles (%) / Fibrillations (%) / Tachycardia (%): % occurrence
# Protocol: Hearts form Wistar rats were isolated and immersed in Chenoweth–Koelle solution (120 mM NaCl; 5 mM KCl; 2.2 mM MgCl2; […]; 2.4 mM CaCl2; 10 mM glucose). Hearts were perfused according to the Langendorff model under a constant pressure of 70 cm H2O (6.87 kPa) with a solution at 37 °C, pH 7.4, constantly oxygenated (O2/CO2, 19:1) using the MyoHEART Langendorff System-900MH (Danish Myo Technology, Hinnerup, Denmark), which monitored the ECG. After 20 min stabilization period, acute myocardial ischemia was induced locally by installing a clamp on the left coronary artery (ischemic period). After 15 min, the clamp was removed, and ECG changes were monitored for 30 min (reperfusion period). The tested compound was added to the perfusion solution 15 min before coronary artery clamping. The point scale described by Bernauer was used to assess the antiarrhythmic activity in this arrhythmia model. The occurrence of a specific type of heart rhythm disturbance during the reperfusion period was scored according to the following scale: • occurrence of less than 10 extrasystoles—1 point; • occurrence of more than 10 extrasystoles—2 points; • presence of ventricular tachycardia—3 points; • presence of fibrillation—4 points.
# [2] = test system: calcium chloride-induced arrhythmia in rats; assay: Prophylactic antiarrhythmic activity in calcium chloride-induced arrhythmia; format: in vivo, rat
# α2 receptors = target: α2 receptors; parameters: method as in PMID 25813897; conditions: cited from earlier work
# α1A receptor = target: α1A receptor; parameters: method as in PMID 25813897; conditions: antagonist; cited from earlier work
# α1 receptors = target: α1 receptors; parameters: method as in PMID 25813897; conditions: cited from earlier work
# [3] = test system: adrenaline-induced arrhythmia in rats; assay: Prophylactic antiarrhythmic activity in adrenaline-induced arrhythmia; format: in vivo, rat; conditions: for Blocks (%) / Bradycardia (%) / Extrasystoles (%) / Mortality (%): adrenaline 20 μg/kg iv, % occurrence
# [4] = target: Ca2+ channel (L, verapamil site); assay: Radioligand binding assay for Ca2+ channel ([3H]-D888); parameters: species or system rat
# Protocol: The radioligand binding studies for K^+ and Ca^2+ channels were performed commercially by Eurofins Cerep (Celle l’Evescault, France) using testing procedures described elsewhere. […]
# normal ECG in rats = assay: Effect on normal electrocardiogram in rats; format: in vivo, rat; parameters: PQ / QRS / QTc / QT / Rate (heart rate): unit not given here; conditions: 5 mg/kg iv; for QTc: Bazzett's formula
# Protocol: To eliminate the influence of the tested derivative on normal electrocardiogram (ECG), the experiment was performed. ECG tests were carried out with Aspel ASCARD apparatus (standard II lead, with the tape speed 50 mm/s and voltage calibration 1 Mv = 1 cm). The ECG was recorded prior and 5, 10, 15 min after iv administration of tested compound. The influence on PQ, QT, QTc interval, QRS complex and heart rate (RR) was defined. The Bazzett’s formula: QTc = QT/√RR was used to calculate QTc.
# isolated rat heart = assay: Effect on normal ECG of isolated rat heart (Langendorff)
# Protocol: Hearts form Wistar rats were isolated and immersed in Chenoweth-Koelle solution (120 mM NaCl; 5 mM KCl; 2.2 mM MgCl2; […]; 2.4 mM CaCl2; 10 mM glucose). Hearts were perfused according to the Langendorff model under a constant pressure of 70 cm H2O (6.87 kPa) with a solution at 37 °C, pH 7.4, constantly oxygenated (O2/CO2, 19:1) using the MyoHEART Langendorff System-900MH (Danish Myo Technology, Hinnerup, Denmark), which simultaneously monitored the ECG. After 20-min stabilization period, the tested compound was administered directly to the nutrient fluid every 15 min at increasing concentrations of […]. The influence on PQ, QTc interval, QRS complex and heart rate (RR) was assessed. The Bazzett’s formula: QTc = QT/√RR was used to calculate QTc.
# potassium hERG channel = target: T1, potassium hERG channel (Homo sapiens, UniProt Q12809); assay: Radioligand binding assay for K+ channel hERG ([3H]-dofetilide, HEK-293 cells)
# T1 construct: host or cells: HEK-293
# T1 sequence (Q12809 whole entry): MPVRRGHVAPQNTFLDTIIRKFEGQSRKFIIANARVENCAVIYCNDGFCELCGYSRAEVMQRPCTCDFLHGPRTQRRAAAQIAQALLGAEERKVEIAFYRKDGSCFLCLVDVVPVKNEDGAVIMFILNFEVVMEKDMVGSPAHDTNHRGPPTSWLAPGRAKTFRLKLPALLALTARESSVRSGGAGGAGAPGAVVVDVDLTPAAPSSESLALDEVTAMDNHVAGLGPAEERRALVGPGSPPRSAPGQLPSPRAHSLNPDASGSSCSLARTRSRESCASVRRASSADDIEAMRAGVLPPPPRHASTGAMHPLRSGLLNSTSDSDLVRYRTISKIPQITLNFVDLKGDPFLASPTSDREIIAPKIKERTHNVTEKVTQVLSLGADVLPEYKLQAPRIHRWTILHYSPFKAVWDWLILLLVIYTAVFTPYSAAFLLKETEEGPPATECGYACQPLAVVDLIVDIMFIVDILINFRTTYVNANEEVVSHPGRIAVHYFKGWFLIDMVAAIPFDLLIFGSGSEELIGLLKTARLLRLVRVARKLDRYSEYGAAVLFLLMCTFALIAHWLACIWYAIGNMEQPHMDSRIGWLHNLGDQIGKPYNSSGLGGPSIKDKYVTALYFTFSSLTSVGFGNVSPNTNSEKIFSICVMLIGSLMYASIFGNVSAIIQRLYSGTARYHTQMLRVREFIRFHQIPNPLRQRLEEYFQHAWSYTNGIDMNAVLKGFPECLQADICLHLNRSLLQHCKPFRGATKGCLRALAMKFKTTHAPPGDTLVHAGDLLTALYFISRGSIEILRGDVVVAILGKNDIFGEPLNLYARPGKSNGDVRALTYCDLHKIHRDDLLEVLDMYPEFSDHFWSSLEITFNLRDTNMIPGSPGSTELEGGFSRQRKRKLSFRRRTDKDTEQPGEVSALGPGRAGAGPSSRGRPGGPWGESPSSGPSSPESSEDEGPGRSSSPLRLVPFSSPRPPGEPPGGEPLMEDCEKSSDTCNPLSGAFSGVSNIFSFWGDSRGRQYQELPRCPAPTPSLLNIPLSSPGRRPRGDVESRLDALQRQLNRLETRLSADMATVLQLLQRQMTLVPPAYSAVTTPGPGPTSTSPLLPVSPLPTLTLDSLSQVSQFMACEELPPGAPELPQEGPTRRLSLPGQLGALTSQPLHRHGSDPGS
# Protocol: The radioligand binding studies for K^+ and Ca^2+ channels were performed commercially by Eurofins Cerep (Celle l’Evescault, France) using testing procedures described elsewhere [68, 69].
# [5] = test system: aconitine-induced arrhythmia in rats; assay: Prophylactic antiarrhythmic activity in aconitine-induced arrhythmia; format: in vivo, rat
# α1B receptor = target: α1B receptor; parameters: method as in PMID 25813897; conditions: antagonist; cited from earlier work
# [6] = test system: blood pressure in normotensive rats; parameters: method as in PMID 25813897; conditions: doses 5, 1, and 0.5 mg/kg; cited from earlier work
# β1-adrenergic receptors = target: T2, β1-adrenergic receptors (Rattus norvegicus, UniProt P18090); assay: Radioligand binding assay for β1-adrenergic receptors ([3H]-CGP-12177); conditions: rat cortex tissue
# T2 construct: from tissue; host or cells: rat cortex
# T2 sequence (P18090 whole entry): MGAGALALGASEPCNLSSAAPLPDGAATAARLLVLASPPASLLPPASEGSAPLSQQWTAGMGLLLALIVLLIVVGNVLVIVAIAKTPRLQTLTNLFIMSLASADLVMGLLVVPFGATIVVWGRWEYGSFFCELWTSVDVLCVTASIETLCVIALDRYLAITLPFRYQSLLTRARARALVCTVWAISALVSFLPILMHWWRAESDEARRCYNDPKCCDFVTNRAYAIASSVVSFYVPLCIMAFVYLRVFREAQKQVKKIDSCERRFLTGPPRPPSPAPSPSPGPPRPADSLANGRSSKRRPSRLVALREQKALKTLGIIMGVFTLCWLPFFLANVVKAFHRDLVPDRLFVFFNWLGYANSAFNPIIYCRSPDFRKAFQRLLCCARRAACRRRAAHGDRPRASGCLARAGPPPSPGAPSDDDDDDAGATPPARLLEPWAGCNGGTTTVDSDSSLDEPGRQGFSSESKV
# Protocol: Radioligand binding assay was performed on tissue rat cortex. […] In order to measure the unspecific binding 1 μM of propranolol was applied. Microplate was covered with a sealing tape, mixed and incubated for 60 minutes at 37 °C. The incubation was terminated by rapid filtration through GF/B filter mate. Ten rapid washes with 200 µL 50 mM Tris buffer (4 °C, pH 7.6) were completed using 96-well FilterMate harvester (PerkinElmer, Boston, MA, USA). The filter mates were dried at 37 °C in forced air fan incubator and then solid scintillator MeltiLex was melted on filter mates at 90 °C for 4 min. […] Data were fitted to a one-site curve-fitting equation with Prism 6 (GraphPad Software, San Diego, CA, USA) and Ki values were estimated from the Cheng−Prusoff equation [51].
# [7] = test system: isolated ischemic rat hearts; parameters: method as in PMID 9228191; conditions: cited from earlier work
# [8] = test system: arrhythmia caused by cardiac ischemia in dogs; parameters: method as in PMID 7528295; conditions: dogs after myocardial infarction; cited from earlier work
# [9] = reperfusion, concentration 10^−6 M
# [10] = calcium chloride 140 mg/kg iv, dose 5 mg/kg iv 15 min before, % occurrence
# [11] = dose 0.03 mg/kg iv 15 min before
# [12] = dose 0.06 mg/kg iv 15 min before
# [13] = dose 0.125 mg/kg iv 15 min before
# [14] = dose 0.25 mg/kg iv 15 min before
# [15] = dose 0.5 mg/kg iv 15 min before
# [16] = 0 min (prior to administration)
# [17] = aconitine 20 μg/kg iv, dose 5 mg/kg iv 15 min before, % occurrence
# [18] = reperfusion, concentration 10^−10 M
compound,measurement,setting,value
C=C[C@H]1C[N@@]2CC[C@H]1C[C@@H]2[C@@H](O)c1ccnc2ccc(OC)cc12 [Quinidine],Extrasystoles (%),[1]; [9],83.3%
same,Fibrillations (%),[1]; [9],0%
same,Tachycardia (%),[1]; [9],50%
same,Arrhythmia Severity Index,"[1]; reperfusion, concentration 10^−6 M, Bernauer scale",2.3 *
"Cl.O=C1CCCN1CCCCN1CCN(c2ccccc2Cl)CC1 [S-75, 1-(4-(4-(2-chlorophenyl)piperazin-1-yl)butyl)pyrrolidin-2-one hydrochloride]",Blocks (%),[2]; [10],100%
same,Bradycardia (%),[2]; [10],100%
same,Extrasystoles (%),[2]; [10],100%
same,Fibrillations (%),[2]; [10],66.7%
same,Mortality (%),[2]; [10],83.3%
same,activity in calcium chloride-induced arrhythmia,"[2]; prophylactic, rats",no activity
same,pKi α2 receptors,α2 receptors,6.01
same,EC50,α1A receptor,138 ± 21.9 nM
same,pKi α1 receptors,α1 receptors,7.3
same,ED50,"[3]; Rattus norvegicus, prophylactic, iv 15 min before adrenaline 20 μg/kg, Litchfield and Wilcoxon, limits in brackets, read-out: ED50 (a dose producing a 50% inhibition of ventricular contractions)",0.05 mg/kg
same,Blocks (%),[3]; [11],100%
same,Bradycardia (%),[3]; [11],100%
same,Extrasystoles (%),[3]; [11],100%
same,Mortality (%),[3]; [11],33.3%
same,Blocks (%),[3]; [12],50%
same,Bradycardia (%),[3]; [12],100%
same,Extrasystoles (%),[3]; [12],83.3%
same,Mortality (%),[3]; [12],0%
same,Blocks (%),[3]; [13],33.3%
same,Bradycardia (%),[3]; [13],33.3%
same,Extrasystoles (%),[3]; [13],66.7%
same,Mortality (%),[3]; [13],50%
same,Blocks (%),[3]; [14],50%
same,Bradycardia (%),[3]; [14],16.7%
same,Extrasystoles (%),[3]; [14],66.7%
same,Mortality (%),[3]; [14],0%
same,Blocks (%),[3]; [15],33.3%
same,Bradycardia (%),[3]; [15],0%
same,Extrasystoles (%),[3]; [15],16.7%
same,Mortality (%),[3]; [15],0%
same,IC50,"[4]; rat cortex tissue, [3H]-D888",0.757 µM
same,"affinity for L-type calcium channels, times lower than D-600",[4]; vs reference D-600,20 times
same,influence on QRS,normal ECG in rats,no influence
same,influence on QT,normal ECG in rats,no influence
same,influence on QTc,normal ECG in rats,no influence; also recorded: did not prolong
same,PQ,normal ECG in rats; [16],46.44 ± 1.352
same,QRS,normal ECG in rats; [16],33.78 ± 1.384
same,QT,normal ECG in rats; [16],81.57 ± 1.356
same,Rate (heart rate),normal ECG in rats; [16],310.8 ± 17.07
same,QTc,normal ECG in rats; [16],182.9 ± 4.805
same,PQ,normal ECG in rats; 5 min,47.00 ± 1.537
same,QRS,normal ECG in rats; 5 min,35.56 ± 1.701
same,QT,normal ECG in rats; 5 min,81.53 ± 1.812
same,Rate (heart rate),normal ECG in rats; 5 min,307.9 ± 18.93
same,QTc,normal ECG in rats; 5 min,192.3 ± 6.176
same,PQ,normal ECG in rats; 10 min,49.78 ± 1.042
same,QRS,normal ECG in rats; 10 min,33.89 ± 1.628
same,QT,normal ECG in rats; 10 min,82.47 ± 2.186
same,Rate (heart rate),normal ECG in rats; 10 min,287.8 ± 22.94
same,QTc,normal ECG in rats; 10 min,189.3 ± 9.543
same,PQ,normal ECG in rats; 15 min,52.11 ± 2.061
same,QRS,normal ECG in rats; 15 min,37.22 ± 1.637
same,QT,normal ECG in rats; 15 min,83.90 ± 1.730
same,Rate (heart rate),normal ECG in rats; 15 min,284.0 ± 23.50
same,QTc,normal ECG in rats; 15 min,190.9 ± 11.46
same,decrease of the heart rate,normal ECG in rats; after 10 min,7.4%
same,decrease of the heart rate,normal ECG in rats; after 15 min,8.6%
same,prolongation of the PQ interval,normal ECG in rats; after 15 min,12.2%
same,prolongation of the PQ interval,isolated rat heart; 10^−8 mol/L,15.1%
same,prolongation of the RR interval,isolated rat heart; 10^−8 mol/L,10.5%
same,effect on QRS complex,isolated rat heart; 10^−10–10^−8 mol/L,not affecting; also recorded: did not affect
same,effect on QTc interval,isolated rat heart; 10^−10–10^−8 mol/L,not affecting; also recorded: did not affect
same,IC50,"potassium hERG channel; HEK-293 cells, [3H]-dofetilide",29.3 µM
same,"affinity toward potassium channel hERG, times lower than terfenadine",potassium hERG channel; vs terfenadine,1172 times
same,Blocks (%),[5]; [17],100%
same,Bradycardia (%),[5]; [17],100%
same,Extrasystoles (%),[5]; [17],100%
same,Fibrillations (%),[5]; [17],100%
same,Mortality (%),[5]; [17],100%
same,activity in aconitine-induced arrhythmia,"[5]; prophylactic, rats",no activity
same,EC50,α1B receptor,2.53 ± 0.5 nM
same,activity in the post-reperfusion model of arrhythmia,[1],did not show the activity
same,Extrasystoles (%),[1]; [18],100%
same,Fibrillations (%),[1]; [18],100%
same,Tachycardia (%),[1]; [18],100%
same,effect on blood pressure,[6],significantly decreased the blood pressure
same,β1 (pKi [nM]),β1-adrenergic receptors,did not bind
COc1cccc(OC)c1OCCNCC1COc2ccccc2O1 (stereo not shown) [WB 4101],reduction of the incidence of ventricular fibrillation / arrhythmias,[7],49%
Cc1ccc(N(CC2=NCCN2)c2cccc(O)c2)cc1 [phentolamine],reduction of the incidence of ventricular fibrillation / arrhythmias,[7],32%
COc1cc2nc(N3CCN(C(=O)c4ccco4)CC3)nc(N)c2cc1OC [prazosin],reduction of the incidence of ventricular fibrillation / arrhythmias,[7],83%
same,animals in which arrhythmia caused by cardiac ischemia was prevented,[8],78%
